Assays:
[1] = tested on: MIA PaCa-2 (KRAS G12C) cells; assay: Cellular pERK HTRF assay; assay type: cell-based; conditions: Homo sapiens; MIA PaCa-2 cells, 4 hours, phospho-ERK 1/2 HTRF; read-out: G12C_pERK (KRAS_G12C pERK assay IC50)
Description: MIA PaCa-2 (KRAS G12C; ATCC® CRL-1420), A427 (KRAS G12D; ATCC® HTB53), HPAF-II (KRAS G12D; ATCC® CRL-1997) and NCI-H838 (KRAS WT; ATCC® CRL-5844) cells are purchased from ATCC and maintained in RPMI 1640 media supplemented with 10% FBS (Gibco/Life Technologies). The cells are plated at 5000 cells per well (8 uL) into Greiner 384-well low volume, flat-bottom, tissue culture treated white plates and incubated overnight at 37° C. 5% CO2. The next morning, test compound stock solutions are diluted in media at 3× the final concentration, and 4 uL are added to the cells. The plate is mixed by gentle rotation for 30 seconds (250 rpm) at room temperature. The cells are incubated with the KRAS G12C and G12D compounds for 4 hours or 2 hours respectively at 37° C., 5% CO2.
4 uL of 4× lysis buffer with blocking reagent (1:25) (Cisbio) are added to each well and plates are rotated gently (300 rpm) for 30 minutes at room temperature. 4 uL per well of Cisbio anti Phospho-ERK 1/2 d2 is mixed with anti Phospho-ERK 1/2 Cryptate (1:1) are added to each well, mixed by rotation and incubated overnight in the dark at room temperature. Plates are read on the Pherastar plate reader at 665 nm and 620 nm wavelengths. IC50 determination is performed by fitting the curve of inhibitor percent inhibition versus the log of the inhibitor concentration using the GraphPad Prism 7 software.

KRAS G12C = KRAS G12C (Homo sapiens, UniProt P01116, G12C); assay: GDP-GTP exchange assay (fluorescence based guanine nucleotide exchange, bodipy-GDP for GppNHp, SOS1); assay type: biochemical; conditions: bodipy-loaded KRAS G12C, 2 hours pre-incubation with inhibitor, read-out: G12C_exchange (KRAS_G12C exchange assay IC50)
KRAS G12C, sequence (P01116 1-188 isoform P01116-2 G12C): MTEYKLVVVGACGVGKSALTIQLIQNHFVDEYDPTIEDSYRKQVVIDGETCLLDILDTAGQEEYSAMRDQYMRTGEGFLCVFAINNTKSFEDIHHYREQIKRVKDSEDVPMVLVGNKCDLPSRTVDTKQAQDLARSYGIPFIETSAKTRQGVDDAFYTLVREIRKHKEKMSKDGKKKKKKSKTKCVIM
In short: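 Bodipy-GDP-loaded KRAS G12C (5-25 nM final) pre-incubated 2 h with inhibitor in Hepes pH 7.5, MgCl2 buffer, then exchange started with 500 uM GppNHp and 150 nM SOS1 for 2 h at ambient temperature. G12D and G12V used 2.5 nM protein, with 4 h and 3 h exchange respectively. Fluorescence read at 485/520 nm; IC50 from four-parameter logistic fit.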

[2] = tested on: MIA PaCa-2 cells (KRAS G12C); assay: Whole blood pERK1/2 HTRF assay; assay type: cell-based; conditions: Homo sapiens, compound in whole blood, 4 hours, phospho-ERK 1/2 HTRF, read-out: G12C_WB_pERK assay IC50
Description: MIA PaCa-2 cells (KRAS G12C; ATCC® CRL-1420) and HPAF-II (KRAS G12D; ATCC® CRL-1997) are maintained in RPMI 1640 with 10% FBS (Gibco/Life Technologies). The cells are seeded into 96 well tissue culture plates (Corning #3596) at 25000 cells per well in 100 uL media and cultured for 2 days at 37° C. 5% CO2 so that they are approximately 80% confluent at the start of the assay. Whole Blood are added to the 1 uL dots of compounds (prepared in DMSO) in 96 well plates and mixed gently by pipetting up and down so that the concentration of the compound in blood is 1× of desired concentration. The media is aspirated from the cells and 50 uL per well of whole blood with G12C or G12D compound is added and incubated for 4 or 2 hours respectively at 37° C. 5% CO2. After dumping the blood, the plates are gently washed twice by adding PBS to the side of the wells and dumping the PBS from the plate onto a paper towel, tapping the plate to drain well. 50 ul/well of 1× lysis buffer #1 (Cisbio) with blocking reagent (1:25) (Cisbio) is then added and incubated at room temperature for 30 minutes with shaking (250 rpm). Following lysis, 16 uL of lysate is transferred into 384-well Greiner small volume white plate using an Assist Plus (Integra Biosciences, NH). 4 uL of 1:1 mixture of anti Phospho-ERK 1/2 d2 and anti Phospho-ERK 1/2 Cryptate (Cisbio) is added to the wells using the Assist Plus and incubated at room temperature overnight in the dark. Plates are read on the Pherastar plate reader at 665 nm and 620 nm wavelengths. IC50 determination is performed by fitting the curve of inhibitor percent inhibition versus the log of the inhibitor concentration using the GraphPad Prism 7 software.

IC50 [1] [nM] | IC50 (KRAS G12C) [nM] | IC50 [2] [nM] | Structure (SMILES)
100 to 1000 | ≤ 100 | – | C=CC(=O)N1CC(O)(Cn2c(=O)c(=O)n(-c3c(C)ccnc3C(C)C)c3nc(-c4c(O)cccc4F)c(Cl)cc32)C1 [Example 42, 1-((1-acryloyl-3-hydroxyazetidin-3-yl)methyl)-7-chloro-6-(2-fluoro-6-hydroxyphenyl)-4-(2-isopropyl-4-methylpyridin-3-yl)-1,4-dihydropyrido[2,3-b]pyrazine-2,3-dione]
1000 to 5000 | ≤ 100 | – | C=CC(=O)N1CC(O)(Cn2c(=O)c(=O)n(-c3c(C)ccnc3C(C)C)c3nc(-c4c(O)ccc(F)c4F)c(Cl)cc32)C1 [Example 45, 1-((1-acryloyl-3-hydroxyazetidin-3-yl)methyl)-7-chloro-6-(5,6-difluoro-2-hydroxyphenyl)-4-(2-isopropyl-4-methylpyridin-3-yl)-1,4-dihydropyrido[2,3-b]pyrazine-2,3-dione]
≤ 100 | ≤ 100 | – | [2H]C([2H])(n1c(=O)c(=O)n(-c2c(C)ccnc2C(C)C)c2nc(-c3c(F)ccc(C)c3O)c(Cl)cc21)C1(F)CN(C(=O)C=C)C1 [Example 47, 1-((1-acryloyl-3-fluoroazetidin-3-yl)methyl-d2)-7-chloro-6-(6-fluoro-2-hydroxy-3-methylphenyl)-4-(2-isopropyl-4-methylpyridin-3-yl)-1,4-dihydropyrido[2,3-b]pyrazine-2,3-dione]
≤ 100 | ≤ 100 | – | [2H]C([2H])(n1c(=O)c(=O)n(-c2c(C)ccnc2C(C)C)c2nc(-c3cccc(Cl)c3Cl)c(Cl)cc21)C1(F)CN(C(=O)C=C)C1 [Example 51, 1-((1-acryloyl-3-fluoroazetidin-3-yl)methyl-d2)-7-chloro-6-(2,3-dichlorophenyl)-4-(2-isopropyl-4-methylpyridin-3-yl)-1,4-dihydropyrido[2,3-b]pyrazine-2,3-dione]
≤ 100 | ≤ 100 | ≤ 100 | C=CC(=O)N1CC(F)(Cn2c(=O)c(=O)n(-c3c(C)ccnc3C(C)C)c3nc(-c4c(O)cccc4Cl)c(Cl)cc32)C1 [Example 56, 1-((1-acryloyl-3-fluoroazetidin-3-yl)methyl)-7-chloro-6-(2-chloro-6-hydroxyphenyl)-4-(2-isopropyl-4-methylpyridin-3-yl)-1,4-dihydropyrido[2,3-b]pyrazine-2,3-dione]
≤ 100 | ≤ 100 | ≤ 100 | C=CC(=O)N1CC(F)(Cn2c(=O)c(=O)n(-c3c(C)ccnc3C(C)C)c3nc(-c4c(Cl)cccc4OC)c(Cl)cc32)C1 [Example 57, 1-((1-acryloyl-3-fluoroazetidin-3-yl)methyl)-7-chloro-6-(2-chloro-6-methoxyphenyl)-4-(2-isopropyl-4-methylpyridin-3-yl)-1,4-dihydropyrido[2,3-b]pyrazine-2,3-dione]
≤ 100 | ≤ 100 | 100 to 1000 | C=CC(=O)N1CC(F)(Cn2c(=O)c(=O)n(-c3c(C)ccnc3C(C)C)c3nc(-c4c(C)cccc4OC)c(Cl)cc32)C1 [Example 58, 1-((1-acryloyl-3-fluoroazetidin-3-yl)methyl)-7-chloro-4-(2-isopropyl-4-methylpyridin-3-yl)-6-(2-methoxy-6-methylphenyl)-1,4-dihydropyrido[2,3-b]pyrazine-2,3-dione]
≤ 100 | ≤ 100 | 100 to 1000 | C=CC(=O)N1CC(F)(Cn2c(=O)c(=O)n(-c3c(C)ccnc3C(C)C)c3nc(-c4c(Cl)cccc4CO)c(Cl)cc32)C1 [Example 59, 1-((1-acryloyl-3-fluoroazetidin-3-yl)methyl)-7-chloro-6-(2-chloro-6-(hydroxymethyl)phenyl)-4-(2-isopropyl-4-methylpyridin-3-yl)-1,4-dihydropyrido[2,3-b]pyrazine-2,3-dione]
≤ 100 | ≤ 100 | 100 to 1000 | C=CC(=O)N1CC(F)(Cn2c(=O)c(=O)n(-c3c(C)ccnc3C(C)C)c3nc(-c4c(Cl)ccc5c4OCO5)c(Cl)cc32)C1 [Example 60, 1-((1-acryloyl-3-fluoroazetidin-3-yl)methyl)-7-chloro-6-(5-chlorobenzo[d][1,3]dioxol-4-yl)-4-(2-isopropyl-4-methylpyridin-3-yl)-1,4-dihydropyrido[2,3-b]pyrazine-2,3-dione]
≤ 100 | ≤ 100 | ≤ 100 | C=CC(=O)N1CC(F)(Cn2c(=O)c(=O)n(-c3c(C(C)C)ccnc3C(C)C)c3nc(-c4c(O)cccc4Cl)c(Cl)cc32)C1 [Example 61, 1-((1-acryloyl-3-fluoroazetidin-3-yl)methyl)-7-chloro-6-(2-chloro-6-hydroxyphenyl)-4-(2,4-diisopropylpyridin-3-yl)-1,4-dihydropyrido[2,3-b]pyrazine-2,3-dione]
≤ 100 | ≤ 100 | ≤ 100 | C=CC(=O)N1CC(F)(Cn2c(=O)c(=O)n(-c3c(C(C)C)ccnc3C(C)C)c3nc(-c4c(Cl)cccc4OC)c(Cl)cc32)C1 [Example 62, 1-((1-acryloyl-3-fluoroazetidin-3-yl)methyl)-7-chloro-6-(2-chloro-6-methoxyphenyl)-4-(2,4-diisopropylpyridin-3-yl)-1,4-dihydropyrido[2,3-b]pyrazine-2,3-dione]
≤ 100 | ≤ 100 | ≤ 100 | C=CC(=O)N1CC(F)(Cn2c(=O)c(=O)n(-c3c(C(C)C)ccnc3C(C)C)c3nc(-c4c(C)cccc4OC)c(Cl)cc32)C1 [Example 63]
≤ 100 | ≤ 100 | 100 to 1000 | C=C(F)C(=O)N1CC(F)(Cn2c(=O)c(=O)n(-c3c(C(C)C)ccnc3C(C)C)c3nc(-c4c(O)cccc4Cl)c(Cl)cc32)C1 [Example 64, 7-chloro-6-(2-chloro-6-hydroxyphenyl)-4-(2,4-diisopropylpyridin-3-yl)-1-((3-fluoro-1-(2-fluoroacryloyl)azetidin-3-yl)methyl)-1,4-dihydropyrido[2,3-b]pyrazine-2,3-dione]

— patent US11767320B2, “Bicyclic dione compounds as inhibitors of KRAS” (INCYTE CORPORATION, priority 2020, dated 2023)
